Measured values from ChEMBL document CHEMBL2203254, “Anion inhibition studies of the fastest carbonic anhydrase (CA) known, the extremo-CA from the bacterium Sulfurihydrogenibium azorense” (Bioorg Med Chem Lett, 2012).
pKi: −log10 of the molar value. Counter-ions that a name gives are not always drawn.

What was measured:
[1] = Inhibition of Sulfurihydrogenibium azorense alpha-carbonic anhydrase preincubated for 15 mins by stopped flow CO2 hydration assay
Carbonic anhydrase 2 = Carbonic anhydrase 2 (Homo sapiens, UniProt P00918); test: Inhibition of human cytosolic carbonic anhydrase 2 preincubated for 15 mins by stopped flow CO2 hydration assay
Carbonic anhydrase 1 = Carbonic anhydrase 1 (Homo sapiens, UniProt P00915); test: Inhibition of human cytosolic carbonic anhydrase 1 preincubated for 15 mins by stopped flow CO2 hydration assay
Chain of Carbonic anhydrase 1 (P00915 whole entry): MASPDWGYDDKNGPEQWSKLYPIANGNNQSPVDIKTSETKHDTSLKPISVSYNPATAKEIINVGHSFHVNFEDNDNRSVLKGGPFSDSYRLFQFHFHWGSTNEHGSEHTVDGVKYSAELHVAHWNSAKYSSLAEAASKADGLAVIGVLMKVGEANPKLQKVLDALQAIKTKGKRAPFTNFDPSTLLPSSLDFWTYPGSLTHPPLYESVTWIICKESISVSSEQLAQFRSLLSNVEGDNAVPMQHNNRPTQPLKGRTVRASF

| Structure (SMILES) | pKi [1] | pKi (Carbonic anhydrase 2) | pKi (Carbonic anhydrase 1) |
| --- | --- | --- | --- |
| CC(=O)Nc1nnc(S(N)(=O)=O)s1 [ACETAZOLAMIDE] | 9.05 |  |  |
| CCN(CC)C(=S)S [DITIOCARB SODIUM] | 5.52 |  |  |
| O=[As](O)(O)c1ccccc1 [PHENYLARSONIC ACID SODIUM SALT] | 5.10 |  |  |
| OB(O)c1ccccc1 [PHENYLBORONIC ACID SODIUM SALT] | 5.15 |  |  |
| [N-]=[N+]=[N-] [SODIUM AZIDE] | 3.47 |  |  |
| O=C([O-])O.[Na+] [SODIUM BICARBONATE] | 1.80 |  |  |
| O=S([O-])O.[Na+] [SODIUM BISULFITE] | 3.02 |  |  |
| [Br-].[Na+] [SODIUM BROMIDE] | 3.03 |  |  |
| O=C([O-])[O-].[Na+].[Na+] [SODIUM CARBONATE] | 2.12 |  |  |
| S=C(S)S [SODIUM CARBONOTRITHIOATE] | 4.41 |  |  |
| [Cl-].[Na+] [SODIUM CHLORIDE] | 3.07 |  |  |
| [F-].[Na+] [SODIUM FLUORIDE] | 3.01 |  |  |
| S [SODIUM HYDROSULFIDE] | 3.42 |  |  |
| O=S(=O)(O)ONOS(=O)(=O)O [SODIUM IMINODISULFATE] | 3.28 | 3.12 | 3.51 |
| [I-].[Na+] [SODIUM IODIDE] | 3.06 |  |  |
| N=C=[Se] [SODIUM ISOSELENOCYANATE] | 3.31 |  | 4.07 |
| N=C=S [SODIUM ISOTHIOCYANATE] | 3.24 |  |  |
| O=[N+]([O-])[O-].[Na+] [SODIUM NITRATE] | 3.12 |  |  |
| O=NO [SODIUM NITRITE] | 3.24 |  |  |
| [O-][Cl+3]([O-])([O-])O [SODIUM PERCHLORATE] | < 0.70 |  |  |
| O=S(=O)(O)OOS(=O)(=O)O [SODIUM PERSULFATE] | 1.48 |  |  |
| O=P(O)(O)OP(=O)(O)O [SODIUM PYROPHOSPHATE] | 3.18 |  |  |
| O=[Se](=O)(O)O [SODIUM SELENATE] | 3.29 |  |  |
| NS(=O)(=O)O [SODIUM SULFAMATE] | 5.30 |  |  |
| O=S(=O)([O-])[O-].[Na+].[Na+] [SODIUM SULFATE ANHYDROUS] | 2.00 |  |  |
| O=[Te](=O)(O)O [SODIUM TELLURATE] | 3.39 |  |  |
| O=BOB(O)OB(O)OB=O [SODIUM TETRABORATE] | 3.31 |  |  |
| F[B-](F)(F)F.[Na+] [SODIUM TETRAFLUOROBORATE] | < 0.70 |  |  |
| NS(N)(=O)=O [SULFURIC DIAMIDE SODIUM SALT] | 5.40 |  |  |
